Measurements from ChEMBL document CHEMBL1138891, “3-(4-Piperidinyl)indoles and 3-(4-piperidinyl)pyrrolo-[2,3-b]pyridines as ligands for the ORL-1 receptor” (Bioorg Med Chem Lett, 2006).

What was measured:
[1] = Half life in human liver microsomes; assay type: ADME, Microsome
[2] = Stability in human liver microsome after 60 mins; assay type: ADME; details: liver microsomes, read-out: Stability

`c1cc2c3c(cccc3c1)C(N1CCC(c3c[nH]c4ncccc34)CC1)C2` (configuration not stated) gave a half-life [1] of 15 min and a remaining at 1 h [2] of 14%.
